The test system of series [1] is diet-induced obese (DIO) Sprague Dawley rats. Nature of the series: Dose escalation study: body weight, food and water intake. It counts as in vivo, rat. The text has this: Male DIO Sprague Dawley rats (n = 4) were fed 60% HF diet (formula: D12492; Research Diets, Inc., New Brunswick, NJ, USA; 5.21 kcal/g) for 16 weeks prior to the start of the study. Rats were changed to being singly housed and allowed to acclimate for at least one week prior to the start of this study. Animals averaged 844.15 ± 99.95 g at baseline. Baseline measures of body weight, food intake, and water intake were taken for 6 days before drug administration began. Doses for the dose escalation study included 1, 2, 5, 10, 20, 50, and 100 nmol/kg. Body weight, food and water intake were assessed just prior to the start of the dark cycle.

Another series has as its system UCP1. Briefly: Gene expression of UCP1 in IWAT and IBAT (qRT-PCR). It counts as in vivo, rat. The source says:
IWAT and IBAT were homogenized using a TissueLyser LT (Qiagen, Hilden, Germany). RNA was extracted from the tissue lysates using the RNeasy Lipid Mini Kit (mfg. # 74804; Qiagen, Hilden, Germany) and reverse transcribed using the high-capacity cDNA kit (mfg. # 4368814; Applied Biosystems, Waltham, MA, USA). qRT-PCR was completed on the mRNA samples using the Applied Biosystems StepOnePlus System (Applied Biosystems, Waltham, MA, USA). All samples were normalized to the cycle threshold value of 18S mRNA. The following TaqMan® probes (Applied Biosystems, Waltham, MA, USA) were used in this study: 18S (cat. # Hs99999901_s1), UCP1 (cat. # Rn00562126_m1), and Cox8b (cat. # Rn00562884_m1). Analysis was completed using the delta CT method.
For orientation: In qPCR the cycle at which signal appears reflects the starting amount.

The next series concerns the target T1, human V1a receptor (Homo sapiens, UniProt P37288).
T1 construct: expressed in transfected cells; host or cells: CHO
Nature of the series: In vitro functional assay at V1aR (cytosolic Ca2+ mobilization, fluorimetric). The note with it: agonist activity, result in words. It counts as cell-based. The method, then: The cells were suspended in DMEM buffer (Invitrogen, Carlsbad, CA, USA) complemented with 0.1% FCS, then distributed in microplates at a density of 4.5 × 10^4 cells/well. The fluorescent probe (Fluo4 Direct, Invitrogen, Carlsbad, CA, USA) mixed with probenicid in HBSS buffer (Invitrogen, Carlsbad, CA, USA) complemented with 20 mM HEPES (Invitrogen; Carlsbad, CA, USA) (pH 7.4) was then added into each well and equilibrated with the cells for 60 min at 37 °C then 15 min at 22 °C. The assay plates were positioned in a microplate reader (CellLux, PerkinElmer, Waltham, MA, USA) followed by the addition of the test compound ASK2131, reference agonist or HBSS buffer (basal control), and the measurements of changes in fluorescence intensity which varies proportionally to the free cytosolic Ca^2+ ion concentration. For stimulated control measurements, AVP at 1 μM was added in separate assay wells. The results were expressed as a percent of the control response to 1 μM AVP. The standard reference agonist was AVP, which was tested in each experiment at several concentrations to generate a concentration-response curve from which its EC50 value was calculated.

The next series has as its target T2, human V2 receptor (Homo sapiens, UniProt P30518).
T2 construct: expressed in transfected cells; host or cells: CHO
Nature of the series: In vitro functional assay at V2R (cAMP production, HTRF). The note with it: result in words. It counts as cell-based. The method, then:
Evaluation of the agonist activity of ASK2131 at the human V2 receptor expressed in stably transfected CHO cells was conducted by measuring its effects on cAMP production using the HTRF detection method. The cells were suspended in HBSS buffer (Invitrogen, Carlsbad, CA) complemented with 20 mM HEPES (pH 7.4), 0.01% BSA and 500 μM IBMX, then distributed in microplates at a density of […] cells/well and incubated for 30 min at room temperature in the absence (control) or presence of the test compound or the reference agonist.
For stimulated control measurement, separate assay wells contained 1 nM AVP. Following incubation, the cells were lysed, and the fluorescence acceptor (D2-labeled cAMP) and fluorescence donor (anti-cAMP antibody labeled with europium cryptate) were added. After 60 min at room temperature, the fluorescence transfer was measured at λex = 337 nm and λem = 620 and 665 nm using a microplate reader (Envision, Perkin Elmer, Waltham, MA, USA). The cAMP concentration was determined by dividing the signal measured at 665 nm by that measured at 620 nm (ratio).
The results were expressed as a percent of the control response to 1 nM AVP. The standard reference agonist was AVP, which was tested in each experiment at several concentrations to generate a concentration-response curve from which its EC50 value was calculated.
Background: Cyclic AMP is a second messenger, typically raised through Gs and lowered through Gi signalling.

Another series deals with T3, hOXTR (Homo sapiens, UniProt P30559).
T3 construct: expressed in transfected cells
T3 sequence (P30559 1-389): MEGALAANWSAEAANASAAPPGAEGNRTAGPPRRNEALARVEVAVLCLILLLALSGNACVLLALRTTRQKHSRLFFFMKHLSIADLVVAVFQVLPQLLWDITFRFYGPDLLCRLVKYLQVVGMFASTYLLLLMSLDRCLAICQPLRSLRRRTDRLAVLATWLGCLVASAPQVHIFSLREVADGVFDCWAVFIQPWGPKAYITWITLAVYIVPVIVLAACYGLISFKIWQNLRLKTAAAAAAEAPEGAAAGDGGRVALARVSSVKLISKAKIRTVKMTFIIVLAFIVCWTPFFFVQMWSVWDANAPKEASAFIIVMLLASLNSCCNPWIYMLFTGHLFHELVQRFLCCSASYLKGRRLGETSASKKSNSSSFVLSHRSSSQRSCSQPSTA
Nature of the series: In vitro functional assay at the OXT receptor (Ca2+ flux, fluorometric imaging plate reader). The note with it: ratio of EC50 values hOXTR/hV2R. It counts as cell-based. The method, then:
In a typical experimental protocol, stably transfected Chinese hamster ovary (CHO) hOTR NFAT bLac cells were plated at a density of 10,000 cells/well in a 384-well plate in growth medium (Dulbecco’s modified Eagle’s medium + Glutamax (Thermo Fisher Scientific, Waltham, MA, USA), 10% dialyzed fetal bovine serum). The next day calcium-sensitive, fluo-4 dye (Invitrogen, Carlsbad, CA, USA) and probenecid (Invitrogen; 2.5 mM) was dissolved in 20 mL warm dye loading buffer (Hanks’ balanced salt solution with calcium and magnesium, 20 mM Hepes, pH 7.4) and added to each well. Plates were incubated for 60–120 min in a 37 °C cell incubator to allow cells to uptake the dye. […] After dye-loading, the cell plates were placed on the fluorometric imaging plate reader. A total of […] of test compound was added to the […] of dye on the cells, and intracellular Ca^2+ was monitored for 90 s. Intracellular Ca^2+ concentrations were calculated as the maximum increase over basal levels. Responses were normalized to control responses. Data were analyzed by curve fitting.
For orientation: A change in cytosolic calcium serves as a functional read-out for many receptors and channels.

The next series is described as follows: in vivo. The note with it: male, Sprague Dawley, rat, sc.

The structures appear in SMILES notation. “Also recorded” adds a separate entry of the source. Numbered stars: 1 amine (or outer) side, 2 acyl side, 3 side chain; on linkers, the order of the positions; unused ones are H or OH. Bridge positions count the residues as written; N and C are the ends. Square brackets hold non-standard residues; d marks the D form. Side chains are listed from the residue outwards. Peptide text beside a SMILES is read from it. * marks the point of attachment. PEG8 = NCCOCCOCCOCCOCCOCCOCCOCCOCCC(=O)O; Palmitoyl = CCCCCCCCCCCCCCCC(=O)*; hCys = N[C@@H](CCS)C(=O)O; X1 = O=C(CC[*:2])[*:1]

The values below come from article PMC9569447 (International Journal of Molecular Sciences, 2022).

T2 sequence (P30518 whole entry): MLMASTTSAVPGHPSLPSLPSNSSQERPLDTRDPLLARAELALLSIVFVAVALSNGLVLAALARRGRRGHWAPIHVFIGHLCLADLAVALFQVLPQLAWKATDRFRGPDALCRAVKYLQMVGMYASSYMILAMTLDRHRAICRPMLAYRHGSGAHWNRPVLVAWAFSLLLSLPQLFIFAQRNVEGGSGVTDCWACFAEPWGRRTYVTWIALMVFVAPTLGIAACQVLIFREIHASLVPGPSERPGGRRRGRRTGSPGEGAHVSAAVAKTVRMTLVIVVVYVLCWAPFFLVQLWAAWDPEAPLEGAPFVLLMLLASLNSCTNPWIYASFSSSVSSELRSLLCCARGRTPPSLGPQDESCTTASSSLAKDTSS
T1 sequence (P37288 whole entry): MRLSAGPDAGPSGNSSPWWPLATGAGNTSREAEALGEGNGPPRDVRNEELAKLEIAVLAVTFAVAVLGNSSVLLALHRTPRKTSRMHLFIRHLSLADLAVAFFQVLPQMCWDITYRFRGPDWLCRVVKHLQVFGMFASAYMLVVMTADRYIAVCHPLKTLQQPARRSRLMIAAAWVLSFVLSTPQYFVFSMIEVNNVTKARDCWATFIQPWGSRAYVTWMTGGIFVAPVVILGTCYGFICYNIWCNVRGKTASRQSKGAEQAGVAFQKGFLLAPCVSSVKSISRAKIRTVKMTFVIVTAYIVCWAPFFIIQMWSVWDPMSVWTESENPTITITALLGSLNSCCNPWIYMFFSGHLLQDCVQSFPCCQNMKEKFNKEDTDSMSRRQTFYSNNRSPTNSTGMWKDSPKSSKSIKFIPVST
Method for in vivo: Whole blood samples were immediately centrifuged at 4 °C; separated plasma (~100 uL) was pipetted into micro centrifuge tubes, flash frozen on dry ice, and stored at −80 °C. Quantitative analysis plasma samples were performed by Alturas Analytics (Moscow, ID, USA) via peptide extraction from acidified plasma with acetonitrile followed by LC-MS/MS analysis.

A word on the half-life: it is the time needed for the level to fall by half in the phase considered. Read a low half-life as fast loss. Regarding `CCCCCCCCCCCCCCCC(=O)NCCOCCOCCOCCOCCOCCOCCOCCOCCC(=O)NCCCC[C@H](NC(=O)CNC(=O)[C@@H]1CCSCCC(=O)N[C@@H](Cc2ccc(O)cc2)C(=O)N[C@@H]([C@@H](C)CC)C(=O)N[C@@H](CCC(N)=O)C(=O)N[C@@H](CC(N)=O)C(=O)N1)C(=O)NCC(N)=O` [ASK2131] (YIQN[hCys]GK([PEG8-Palmitoyl])G-NH2; linker N-5 via X1), the “2-day averaged food intake reduction relative to baseline” value in series [1] (DIO rats, at doses < 2 nmol/kg and > 5 nmol/kg) is 20–25%. Besides, the “loss in body weight compared to baseline” value in series [1] (DIO rats, once daily sc doses rising every two days from 1 to 100 nmol/kg, average per rat over the treatment period) was determined as 8.4%. Also, in series [1] (at 2 nmol/kg, after only four treatments), the “decrease in body weight compared to baseline” value is on record as ~ 4%. For the same compound, in series [1] (one rat with severe diarrhea was terminated and excluded, result in words), the adverse response result was “No other animals treated with ASK2131 showed any signs of an adverse response”. In addition, in series [1] (with increased dosing of ASK2131, result in words), the water intake entry was “not significantly different from baseline”. Further, the “gene expression (UCP1, Cox8b) in comparison to the vehicle treated group” value with UCP1 (IWAT and IBAT, result in words) is given as “none of the examined genes showed a significant response”. Moreover, the “UCP1 expression in IBAT, mean rank difference (MRD), ASK2131 relative to OXT treatment” value in the series with UCP1 (interscapular brown adipose tissue, qRT-PCR normalized to 18S, p = 0.011) is −12.5. Besides, the “UCP1 expression in IWAT, mean difference (MD), ASK2131 relative to OXT treatment” value in the series with UCP1 (qRT-PCR normalized to 18S, 95% CI −4.23 to 0.42, p = 0.014) is given as −2.32. For the same compound, the V1aR activation result on human V1a receptor is “did not display V1aR activation; also recorded: Neither molecule, ASK1476 or ASK2131, is active”. The V2R activation entry at human V2 receptor is on record as “potent activator of V2R; also recorded: activate V2R”. In addition, the “Ratio hOXTR/hV2R” value at hOXTR is 3.06. In the series “in vivo”, this compound had a half-life of 138 min.
